Structures are written as SMILES. Counter-ions that a name gives are not always drawn.

Data on 1 molecule can be found in patent US11744830B2, “Ameliorative agent for cytokine release syndrome and so on” (TORII PHARMACEUTICAL CO., LTD., priority 2018, dated 2023).

Experiment [1] has as its system VEGF production from macrophages. Put plainly: LPS stimulation-induced VEGF production in macrophages. In kind it is cell-based, human. As to the method: CD14^+ cells were cultured in 20 ng/mL M-CSF-containing RPMI medium at 37° C. for 5 days to induce differentiation into macrophages (during which the medium was replaced once every two days with fresh 20 ng/mL M-CSF-containing RPMI medium). […] The macrophages were then stimulated with LPS (final concentration: 100 ng/mL) or RPMI medium alone at 37° C. for 3 days, followed by collecting the culture supernatants. The collected culture supernatants were quantified for VEGF using Human VEGF DuoSet ELISA.

Experiment [2] deals with IL-6, IL-8 and other inflammatory cytokines. As to conditions: phase I study, LPS loading; cited from earlier work.

Consider `CCOC(=O)[C@H](Cc1ccccc1)NC(=O)c1cc(Cl)c(OCCN2CCN(C)CC2)c(Cl)c1O` [JTE-607, (−)-ethyl N-{3,5-dichloro-2-hydroxy-4-[2-(4-methylpiperazin-1-yl)ethoxy]benzoyl}-L-phenylalaninate dihydrochloride], for which the IC50 (commonly the concentration that inhibits the measured activity by half) in experiment [1] (Homo sapiens, Macrophage, 72 h, read-out: IC50 value, VEGF) was 204 nM. Further, the “effect on VEGF production from macrophages” value in experiment [1] (Macrophages, LPS) is recorded as “tended to suppress VEGF production from macrophages, but its effect was marginal”. Further, in experiment [2], the “elevation of C-reactive protein (CRP) levels” value is recorded as “suppress the elevation of C-reactive protein (CRP) levels in a dose-dependent manner”; the “production of IL-6, IL-8 and other inflammatory cytokines” value is “suppress the production of IL-6, IL-8 and other inflammatory cytokines”.
